Assays:
mitochondrial complex I = mitochondrial complex I (Mus musculus, UniProt P03888+Q91WD5+Q9DC70); test: Seahorse OCR in permeabilized CT26 cancer cells, mitochondrial complex I inhibition (Assay #2); format: cell-based; conditions: for IC50: pyruvate/malate, tested at 1 and 10 µM, read-out: OCR inhib. (IC50); for pattern of OCR inhibition activity relative to aa: 1 and 10 µM
Procedure: (§1) L-lactate concentration was measured in a semi-automated manner using CMA Microdialysis AB enzymatic assay and a CMA 600 analyzer (Aurora Borealis, Schoonebeek, The Netherlands) as previously described. Briefly, cells (2 × 10^5 cells per well; 3 wells/condition) were seeded in 12-well plates with 2 mL of their routine culture medium. After 24 h, medium was replaced by 500 µL of DMEM containing 10 mmol/L D-glucose and supplemented with 2 mmol/L L-glutamine and 10% dialyzed FBS (Sigma-Aldrich), in the presence of the compounds or vehicle (DMSO). The initial concentration of L-lactate in the experimental medium was also assessed by including control wells containing only cell culture medium (no cells) on each plate. After incubation for 24 h, extracellular media were collected and deproteinized by centrifugation (15 min, 10,000 rpm, 4 °C) in 10 kDa cut-off filter tubes (VWR, Avantor, Leuven, Belgium). Differences in L-lactate concentrations between control and treated cells were calculated and normalized by the protein content in each well and expressed in µmol/h/mg protein. Oxygen-consumption rate (OCR) was measured using the Seahorse XF96 plate reader as previously reported. Briefly, cells (2 × 10^4 cells per well) were first permeabilized with 1 nM Seahorse XF Plasma Membrane Permeabilizer (#102504-100; Agilent, Machelen, Belgium) and respiration was stimulated by adding 10 mM pyruvate, 5 mM malate, and 2 mM ADP. After baseline OCR determination, compounds were added (to inhibit complex I) followed by 10 mM succinate to fuel complex II and rescue the electron transport chain. In some experiments, the effects of selected hits on basal OCR were evaluated in intact cells (including in the presence of MCT1/2 inhibitor AR-C155858 [29] or methylpyruvate). OCR data were normalized according to protein content in each well.
(A–D). Graphs depict changes in O2 consumption rate (OCR) measured with the Seahorse technology on permeabilized CT26 cancer cells upon successive addition of pyruvate/malate, the indicated inhibitor and succinate. […] (E,F).

3D tumor CT26 spheroids [1] = test: Radiosensitizing effects in 3D tumor spheroids (6 Gy irradiation); format: cell-based, mouse; conditions: 6 Gy irradiation at day 4, day 10 vs day 3
Procedure: (§2) Spheroids were prepared by seeding 1500 cells/well in Ultra-Low Attachment 96-well plate (Corning, Merck, Hoeilaart, Belgium) in DMEM supplemented with 10% heat-inactivated FBS. Inhibitors were added on day 4 (mean diameter of spheroids: 300 µm) and renewed every 3 days. Spheroid growth was monitored using live-cell phase contrast microscope (Axio Observer, Zeiss, Zaventem, Belgium); spheroid area, density and morphology were measured using ImageJ software. Confocal fluorescence microscopy (LSM510, Zeiss, Zaventem, Belgium) was used for detecting pimonidazole immunostaining as previously reported. Spheroids from a same experiment were imaged with the same gain and exposure settings. In some experiments, OXPHOSi treatment was combined with irradiation using a ^137Cs γ-irradiator (IBL-637; CIS-BioInternational, Saclay, France) as previously described.
(§3) Figure 5 Inhibition of 3D tumor spheroid growth (Assay #3). […] Drug exposure without (A) or with irradiation (B) was associated with a significant reduction in spheroid sizes vs. untreated spheroids (not shown).
We also took advantage of 3D tumor spheroids to evaluate whether they could radiosensitize tumors upon O2 sparing resulting from inhibition of O2 consumption. […]

3D tumor CT26 spheroids [2] = test: Inhibition of 3D tumor spheroid growth (Assay #3); format: cell-based, mouse; conditions: for 3D growth inhib. (%): 3D tumor CT26 spheroids; for spheroid growth inhibition compared with reference compound aa: CT26 spheroids, day 10
Procedure: as §2, §3

[3] = test system: cancer cells from dissociated spheroids; test: Regrowth of cells from dissociated spheroids after irradiation and compound; format: cell-based, mouse; conditions: plated for 14 days, compared with aa
Description: Finally, to document the expected re-oxygenation, spheroids treated with compounds aa, aj and am were exposed to the hypoxia probe pimonidazole.
(§4) Figure 6 Radiosensitizing effects of selected complex I inhibitors. (A) Extent of surviving cancer cells post-exposure to radiotherapy and the indicated compounds (n = 3, * p < 0.05, ** p < 0.01 vs. vehicle condition).

3D tumor CT26 spheroids [4] = test: Pimonidazole immunostaining of hypoxia in spheroids; format: cell-based, mouse; conditions: treated spheroids
Procedure: as §2, §4

[5] = test system: colorectal CT26 cancer cells; test: Compound-induced L-lactate release (Assay #1), CT26; format: cell-based, mouse; conditions: 10 µM; for L-lactate release compared with reference compound aa: 24 h; for [LAC] increase: 24 h exposure, L-lactate secretion above basal release
Procedure: as §1
Figure 3 Compound-induced L-lactate release (Assay #1). Culture medium was collected after 24 h exposure to the indicated compounds (10 µM) and the amount of extracellular L-lactate release was determined in a semi-automated manner; dose-dependent effects of complex I inhibitor IACS are shown on the right (shaded bars). Bar graph depicts the extent of L-lactate secretion above the basal release as determined in the absence of any compound (n = 3, ** p < 0.01 for increased L-lactate release vs. reference compound aa).

[6] = Cell integrity by Trypan blue exclusion; format: cell-based; conditions: cancer cells (cell line not specified); 24 h after exposure; read-out: viable cancer cells (Trypan blue exclusion)
Description: (§5) Mouse colorectal CT26 and breast 4T1 cancer cells as well as human cervix cancer SiHa and breast MDA-MD-231 cancer cells were acquired from ATCC where they are regularly authenticated by short tandem repeat profiling. They were stored according to the supplier’s instructions and used within 6 months after resuscitation of frozen aliquots. Cancer cells were maintained in DMEM (Life Technologies, ThermoFischer scientific, Merebelke, Belgium) supplemented with 10% heat-inactivated FBS. All cell lines were tested for mycoplasma contamination with the MycoAlert™ Mycoplasma Detection kit (#LT07-318; Lonza, Verviers, Belgium) before being used. Cell integrity was determined by the Trypan Blue exclusion method (using Bürker chambers) while cell growth was assessed by using the Presto Blue reagent (Life Technologies) according to manufacturer’s instructions.
Still, to support the anticancer potential of complex I inhibition, we also examined the cytotoxic effects of longer exposure of intact cancer cells to reference compound aa and hit compounds ag, aj and au. […] While the nature of cell death induced by aa derivatives is beyond the scope of this manuscript, alteration in mitochondria fitness and capacity to buffer calcium could be involved as previously reported.

intact CT26 cancer cells = test: Seahorse basal OCR and ECAR in intact (non-permeabilized) CT26 cancer cells; format: cell-based, mouse; conditions: non-permeabilized CT26 cells, 10 µM
Procedure: as §1
Since other lactate transporters could be involved, we also used methylpyruvate which can bypass the need for a mitochondrial carrier and mimic the result of lactate oxidation by a mitochondrial LDH or ensure the delivery of pyruvate into the mitochondria matrix. […] In the same experiments carried out on non-permeabilized cancer cells, the extent of basal OCR inhibition in response to 10 µM aa was similar to that observed with 100 nM IACS-010759 (−52 ± 5% and −45 ± 6%, respectively) and mirrored by an increase in extracellular acidification rate (ECAR) (+36 ± 11% and +29 ± 9%, respectively).

CT26 colon cancer cells = test: Growth inhibitory effects on cultured CT26 cells (Presto Blue); format: cell-based, mouse; conditions: CT26 monolayers, 1 µM, 72 h
Description: as §5
(§6) Figure 4 Mitochondrial complex I activity inhibition (Assay #2). (A–D). Graphs depict changes in O2 consumption rate (OCR) measured with the Seahorse technology on permeabilized CT26 cancer cells upon successive addition of pyruvate/malate, the indicated inhibitor and succinate. OXPHOS I inhibitor IACS was used as a control in the experiments testing reference compound aa (A), and compound aa (10µM) was used as reference for testing au, ah and at derivatives (B–D) (n = 6 per compound). (E,F). Growth inhibitory effects of cultured CT26 (E) and 4T1 […] cancer cells exposed to 100 nM IACS or 1 µM aa, ag, aj and au compounds for 72 h; data represent the reduced extent (expressed as %) of cell viability (determined with Presto Blue) when compared with vehicle conditions (n = 3).

[7] = test system: human cervix Siha cancer cells; test: Growth inhibitory effects on human cancer cells (Presto Blue), SiHa vs MDA-MB-231; format: cell-based; conditions: 1 µM
Description: as §5
Suppl. Figure S3. Growth inhibitory effects of hit compounds on human cancer cells. MDA-M B-231 (A) and Siha (B) cancer cells were exposed to 100 nM IACS or 1 µM aa, ag, aj and au compounds; data represent the reduced extent (expressed as %) of cell viability (determined with Presto Blue) when compared with vehicle conditions (n=3).
(also on this page, place not known: 60Growth inhibitory effects (%) MDA-MB-231 aa au 60Growth inhibitory effects (%))

breast 4T1 cancer cells = test: Growth inhibitory effects on cultured 4T1 cells (Presto Blue); format: cell-based, mouse; conditions: 4T1 monolayers, 1 µM, 72 h, compared with CT26
Description: as §5, §6

[8] = test system: breast cancer 4T1 cancer cells; test: Compound-induced L-lactate release (Assay #1), 4T1; format: cell-based, mouse; conditions: 4T1 cells, 24 h
Procedure: L-lactate concentration was measured in a semi-automated manner using CMA Microdialysis AB enzymatic assay and a CMA 600 analyzer (Aurora Borealis, Schoonebeek, The Netherlands) as previously described. Briefly, cells (2 × 10^5 cells per well; 3 wells/condition) were seeded in 12-well plates with 2 mL of their routine culture medium. After 24 h, medium was replaced by 500 µL of DMEM containing 10 mmol/L D-glucose and supplemented with 2 mmol/L L-glutamine and 10% dialyzed FBS (Sigma-Aldrich), in the presence of the compounds or vehicle (DMSO). The initial concentration of L-lactate in the experimental medium was also assessed by including control wells containing only cell culture medium (no cells) on each plate. […] Differences in L-lactate concentrations between control and treated cells were calculated and normalized by the protein content in each well and expressed in µmol/h/mg protein. Oxygen-consumption rate (OCR) was measured using the Seahorse XF96 plate reader as previously reported. […] In some experiments, the effects of selected hits on basal OCR were evaluated in intact cells (including in the presence of MCT1/2 inhibitor AR-C155858 [29] or methylpyruvate). […]
Suppl. […] Culture medium was collected after 24h exposure to the indicated compounds and lactate content was determined in a semi-automated manner. […]

Row | SMILES | IC50 (mitochondrial complex I) [µM] | change in spheroid size with irradiation (3D tumor CT26 spheroids [1]) | 3D growth inhib. (%) (3D tumor CT26 spheroids [2]) | spheroid growth inhibition compared with reference compound aa (3D tumor CT26 spheroids [2]) | ability of cancer cells to re-grow after irradiation and compound [3] | reduction of hypoxia (pimonidazole) (3D tumor CT26 spheroids [4]) | L-lactate release compared with reference compound aa [5] | [LAC] increase [5] [µmol/h/mg] | concentration at which complex I-dependent OCR reduction was detectable (mitochondrial complex I) [µM] | reversal of OCR inhibition upon succinate addition (mitochondrial complex I; 10 mM succinate) | viability at 24 h [6] [%] | increase in extracellular acidification rate (ECAR) (intact CT26 cancer cells) | cytotoxic / growth inhibitory effects (CT26 colon cancer cells) | antiproliferative effects in Siha compared with MDA-MB-231 cells [7] | growth inhibitory activity (breast 4T1 cancer cells) | pattern of OCR inhibition activity relative to aa (mitochondrial complex I) | L-lactate release compared with aa compound [8]
1 | NC(=O)c1nnn(Cc2cc(Cl)c(Cc3ccc(Cl)cc3)c(Cl)c2)c1N [compound am] | ~10 | net reduction in the spheroid size | >50 | significantly more active than reference compound aa | much lesser ability to re-grow | reduced hypoxia to a larger extent than compound aa | more potent inducers of L-lactate release | ~4 | – | – | – | – | – | – | – | – | –
2 | NC(=O)c1nnn(Cc2cc(Cl)c(C(=O)c3ccc(Cl)cc3)c(Cl)c2)c1N [compound aa, carboxyamidotriazole, reference compound] | – | – | – | – | – | – | – | ~2 | 1 | full reversal of OCR inhibition | 90.9 ± 5.1 | +36 ± 11% | very limited effects | Larger antiproliferative effects | more significant growth inhibitory activity | – | –
3 | NC(=O)c1nnn(Cc2cc(Cl)c(C(=O)C3CCCCC3)c(Cl)c2)c1N [compound aj] | – | net reduction in the spheroid size | >50 | significantly more active than reference compound aa | much lesser ability to re-grow | reduced hypoxia to a larger extent than compound aa | more potent inducers of L-lactate release | ~4 | – | – | – | – | very limited effects | Larger antiproliferative effects | more significant growth inhibitory activity | – | –
4 | COC(=O)c1cn(Cc2cc(Cl)c(C(=O)c3ccc(Cl)cc3)c(Cl)c2)nn1 [compound au] | – | – | <25 | significantly lesser growth inhibitory effects than compound aa | – | – | more potent inducers of L-lactate release | ~4 | – | – | – | – | very limited effects | Larger antiproliferative effects | more significant growth inhibitory activity | equiactive | more
5 | NCc1cn(Cc2cc(Cl)c(C(=O)c3ccc(Cl)cc3)c(Cl)c2)nn1 [at] | > 10 | – | – | – | – | – | – | ~0 | – | – | – | – | – | – | – | inactive | less potent

— paper PMC9658316, “Discovery of Mitochondrial Complex I Inhibitors as Anticancer and Radiosensitizer Drugs Based on Compensatory Stimulation of Lactate Release” (Cancers, 2022)
